Results published in US7098334B2 (Industrial Research Limited, priority 2002, dated 2006).
Counter-ions that a name gives are not always drawn. Like-named read-outs stand apart in the source and are kept apart here.

Tests used:
[1] = target: T1, human MTAP (Homo sapiens, UniProt Q13126); test: Enzyme inhibition assay, MTAP (slow-onset inhibition constants); format: biochemical; details: for Ki: MTAP
T1 construct: inferred from pQE32 vector and Ni-NTA purification) (N); made in house; host or cells: E. coli
T1 sequence (Q13126 1-283): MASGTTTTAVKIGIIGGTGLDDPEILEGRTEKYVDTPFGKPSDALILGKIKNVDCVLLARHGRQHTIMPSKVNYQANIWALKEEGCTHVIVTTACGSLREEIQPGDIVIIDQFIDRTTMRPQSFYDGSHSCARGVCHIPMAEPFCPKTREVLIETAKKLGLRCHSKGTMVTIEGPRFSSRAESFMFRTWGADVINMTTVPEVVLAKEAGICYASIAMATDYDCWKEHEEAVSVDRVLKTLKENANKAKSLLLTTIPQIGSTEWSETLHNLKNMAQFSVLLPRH
Description: (§1) Ki as shown in Tables 1 and 2 is the initial inhibition constant formed by the enzyme-inhibitor complex, and Ki* is the equilibrium dissociation constant for inhibition that is observed following a period of slow-onset, tight binding inhibition. Ki* is the biologically effective constant.
(§2) Enzyme assays were conducted to assess the effectiveness of selected compounds of the invention as inhibitors of MTAP and MTAN.
Enzymes.—The human MTAP protein was cloned into pQE32 expression vector and transformed into E. coli. Induction cultures containing 1 L (25 mg/L) and 50 μg/mL ampicillin were inoculated with 1 mL overnight grown starter-culture and incubated at 37° C. When the cultures reached an OD of ≈0.6 they were induced with 1.5 mM IPTG for 6 to 8 hours. Cells were harvested by centrifugation at 5000 rpm for 30 min, and subsequently resuspended in a buffer (20 mM imidazole, 300 mM NaCl, 0.2 mM phenylmethylsulfonyl fluoride (PMSF), 100 mM Tris, pH 8.0) containing a small amount of lysozyme to weaken the cell membrane. Cells were lysed with a French press. The insoluble material was removed by high-speed centrifugation. The cell extract was further clarified with 35% ammonium sulfate precipitation followed by high-speed centrifugation. The clarified cell extract was then applied to a 5 mL Ni-NTA column that had previously been equilibrated with the binding buffer. Further chromatographic steps were carried out by FPLC. The column was washed with 10 volumes of 50 mM imidazole, 300 mM NaCl, and 100 mM Tris, pH 8.0, and the protein was eluted with a buffer containing a 50–250 mM gradient of imidazole, 300 mM NaCl, 1 M Tris, pH 8.0. The purity of the protein was verified by running polyacrylamide gel followed by Coomassie staining. The protein was subsequently dialyzed in 50 mM NaCl, 2 mM dithiothreitol (DTT) and 50 mM Tris, pH 7.4, and was concentrated to 10 mg/mL. The purified protein was stored at −80° C. in 100 μL to 150 μL aliquots.
(§3) Inhibitors.—Inhibitor concentrations were determined by the UV absorbance spectrum using the published millimolar extinction coefficients for 9-dazadenine of 8.5 at 275 nm at pH 7.0.
(§4) Assays.—The direct spectrophotometric assay for the conversion of MTA into adenine was measured as the decrease in absorbance at 274 nm. At 274 nm, Δε between MTA and adenine is at a maximum and produces a spectral change of 1.6 absorbance units/cm/mM (DeWolf, W. E. Jr., Fullin, F. A., and Schramm, V. L. (1979) J. Biol. Chem. 254, 10868–10875)
(§5) This concentration corresponds to an OD of 0.7–1.1 at 274 nM. The formation of product was monitored as a decrease in absorbance at 274 nm. Conditions for Ki* determination used high concentrations of substrate. Two controls, one having no inhibitor and the other no enzyme were included in the experiment. The Ki values MTAP for the various compounds were calculated by fitting in the ratio of initial rates in the presence of inhibitor to without any inhibitor versus the inhibitor concentration, for the known Km and substrate concentration into the following expression.
(§6) Where Vo′ is the rate in the presence of inhibitor • Vo rate in the absence of inhibitor • [I] inhibitor concentration • And [S] is the substrate concentration
(§7) And the Ki* was calculated by fitting to the following expression
(§8) Where Vs′ is the steady-state rate following attainment of equilibrium in the presence inhibitor, and Vs is the steady-state rate in the control having no inhibitor. Both these equations are valid for competitive type inhibition.

[2] = target: MTAN (Escherichia coli, UniProt P0AF12); test: Enzyme inhibition assay, MTAN (slow-onset inhibition constants); format: biochemical; details: for Ki: MTAN
Description: as §1, §2, §3, §4
as §5, with “Slow-Onset Inhibition and Inhibition Constants.—The kinetics for slow onset inhibition and the Ki measurement was carried out by adding a known concentration of enzyme (1–5 nM) to a reaction mixture containing a substrate concentration of 200 μM. This” for “This”
as §6, §7, §8

[3] = equilibrium dissociation constant after slow-onset, tight binding inhibition, read-out: Ki*
[4] = initial inhibition constant, read-out: Ki
[5] = Ki*, equilibrium dissociation constant after slow-onset, tight binding inhibition
[6] = Ki, initial inhibition constant

Sequence of MTAN (P0AF12 whole entry): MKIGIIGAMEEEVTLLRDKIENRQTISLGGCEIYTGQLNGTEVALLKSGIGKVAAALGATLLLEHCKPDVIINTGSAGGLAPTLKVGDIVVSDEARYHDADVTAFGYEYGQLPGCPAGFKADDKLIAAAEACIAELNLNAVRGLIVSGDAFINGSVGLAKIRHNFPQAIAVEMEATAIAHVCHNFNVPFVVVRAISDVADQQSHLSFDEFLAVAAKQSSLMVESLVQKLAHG

Row | SMILES | Ki [1, 3] | Ki [1, 4] | Ki [2, 3] | Ki [2, 4] | Ki [2, 5] | Ki [2, 6] | inhibition of MTAP (in words) [1] | inhibition of MTAN (in words) [2]
1 | Nc1ncnc2c([C@@H]3N[C@H](CSc4ccccc4)[C@H](O)C3O)c[nH]c12 (stereo partly shown) | 0.082 ± 0.009 nM | 0.89 ± 0.12 nM | 0.032 ± 0.002 nM | 0.046 ± 0.003 nM | – | – | – | –
2 | Nc1ncnc2c([C@@H]3N[C@H](CSc4cccc(Cl)c4)[C@H](O)C3O)c[nH]c12 (stereo partly drawn) [5′-(m-Chloro-Phenyl-thio)-ImmA, (1S)-1-(9-Deazaadenin-9-yl)-5-(3-chlorophenyl)thio-1,4-dideoxy-1,4-imino-D-ribitol] | – | 4 ± 0.4 nM | – | – | 0.02 ± 0.002 nM | 0.044 ± 0.004 nM | – | –
3 | Cc1cccc(SC[C@H]2N[C@@H](c3c[nH]c4c(N)ncnc34)C(O)[C@H]2O)c1 (stereo partly shown) [5′-(m-tolylthio)-ImmA] | 0.146 ± 0.048 nM | 0.602 ± 0.032 nM | – | – | 0.009 ± 0.001 nM | 0.015 ± 0.0006 nM | – | –
4 | Nc1ncnc2c([C@@H]3N[C@H](CSc4ccc(Cl)cc4)[C@H](O)C3O)c[nH]c12 (stereo partly drawn) [5′-(p-Chloro-Phenyl-thio)-ImmA, (1S)-1-(9-Deazaadenin-9-yl)-5-(4-chlorophenyl)thio-1,4-dideoxy-1,4-imino-D-ribitol] | 0.09 ± 0.02 nM | 0.334 ± 0.036 nM | – | – | 0.006 nM | 0.006 ± 0.0003 nM | – | –
5 | Nc1ncnc2c([C@@H]3N[C@H](CSc4ccc(F)cc4)[C@H](O)C3O)c[nH]c12 (stereo partly shown) [5′-(p-Fluoro-phenyl-thio)-ImmA] | – | 3 ± 0.2 nM | – | – | 0.02 ± 0.004 nM | 0.082 ± 0.007 nM | – | –
6 | Cc1ccc(SC[C@H]2N[C@@H](c3c[nH]c4c(N)ncnc34)C(O)[C@H]2O)cc1 (stereo partly shown) [5′-(p-tolylthio)-ImmA] | 0.252 ± 0.023 nM | 1.6 ± 0.2 nM | – | – | 0.008 ± 0.001 nM | 0.018 ± 0.001 nM | – | –
7 | Nc1ncnc2c([C@@H]3N[C@H](CSCc4ccccc4)[C@H](O)C3O)c[nH]c12 (stereo partly drawn) [5′-Benzylthio-ImmA, (1S)-1-(9-Deazaadenin-9-yl)-5-benzylthio-1,4-dideoxy-1,4-imino-D-ribitol] | – | 12 ± 1 nM | – | – | 0.012 ± 0.001 nM | 0.038 ± 0.003 nM | – | –
8 | CCSC[C@H]1N[C@@H](c2c[nH]c3c(N)ncnc23)C(O)[C@H]1O (stereo partly shown) [5′-Ethylthio-ImmA] | 0.26 ± 0.015 nM | 18 ± 2 nM | – | – | 0.027 ± 0.0003 nM | 0.073 ± 0.011 nM | – | –
9 | Nc1ncnc2c([C@@H]3N[C@H](CSCCF)[C@H](O)C3O)c[nH]c12 (stereo partly shown) [5′-Fluoroethylthio-ImmA] | 1.5 ± 0.17 nM | 7 ± 0.5 nM | – | – | 0.03 ± 0.003 nM | 0.103 ± 0.011 nM | – | –
10 | Nc1ncnc2c([C@@H]3N[C@H](CSCCO)[C@H](O)C3O)c[nH]c12 (stereo partly shown) [5′-Hydroxyethylthio-ImmA] | – | 22 ± 2 nM | – | – | – | 0.407 ± 0.016 nM | – | –
11 | COC[C@H]1N[C@@H](c2c[nH]c3c(N)ncnc23)[C@H](O)[C@@H]1O [5′-Methoxy-ImmA, (1S)-1-(9-deazaadenin-9-yl)-1,4-dideoxy-1,4-imino-5-O-methyl-D-ribitol hydrochloride] | – | 70 ± 5 nM | – | – | – | 10 ± 1 nM | – | –
12 | Nc1ncnc2c([C@@H]3N[C@H](CSc4cccc5ccccc45)[C@H](O)C3O)c[nH]c12 (stereo partly shown) [5′-Napthylthio-ImmA] | – | 52 ± 5 nM | – | – | – | 0.75 ± 0.033 nM | – | –
13 | CCC[C@H]1N[C@@H](c2c[nH]c3c(N)ncnc23)[C@H](O)[C@@H]1O [5′-deoxy-5′-ethyl-ImmA, (1S)-1-(9-Deazaadenin-9-yl)-1,4,5-trideoxy-5-ethyl-1,4-imino-D-ribitol] | – | – | 0.038 ± 0.005 nM | 0.121 ± 0.005 nM | – | – | – | –
14 | C[C@H]1N[C@@H](c2c[nH]c3c(N)ncnc23)[C@H](O)[C@@H]1O [5′-deoxy-ImmA, (1S)-1-(9-deazaadenin-9-yl)-1,4,5-trideoxy-1,4-imino-D-ribitol hydrochloride] | – | 220 ± 14 nM | – | – | – | 13 ± 1 nM | – | –
15 | CSC[C@H]1N[C@@H](c2n[nH]c3c(N)ncnc23)C(O)[C@H]1O (stereo partly drawn) [5′-methylthio-8-aza-ImmA, (1S)-1-(7-Amino-1H-pyrazolo[4,3-d]pyrimidin-3-yl)-1,4-dideoxy-1,4-imino-5-methylthio-D-ribitol] | 0.76 ± 0.14 nM | 7 ± 1 nM | – | – | 0.026 ± 0.0003 nM | 0.055 ± 0.003 nM | – | –
16 | Nc1ncnc2c([C@@H]3N[C@H](CO)C(O)C3O)c[nH]c12 (stereo partly shown) [Immucillin A, reference compound] | – | – | – | – | – | – | no inhibition | –
17 | CSC[C@H]1N[C@@H](c2c[nH]c3c(=O)[nH]cnc23)C(O)C1O (stereo partly shown) [methylthio-ImmH, reference compound] | – | – | – | – | – | – | – | no inhibition
